Data published in PubChem BioAssay (NCI).
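Growth conditions: 96-well plates. Treatment: test compound, 48 hours, 5 concentrations. Analysis: linear interpolation between bracketing concentrations; unreached endpoints set to highest concentration. The concentration for full growth arrest is given as TGI.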

Experiments:
Assay in all cases: DTP human tumour cell line panel, 48 h
786-0 renal = system: 786-0 renal
HCT-15 colon = system: HCT-15 colon
M14 melanoma = system: M14 melanoma
DU-145 prostate = system: DU-145 prostate
MDA-MB-231 breast = system: MDA-MB-231 breast
COLO 205 colon = system: COLO 205 colon
HL-60(TB) leukemia = system: HL-60(TB) leukemia
SF-295 CNS = system: SF-295 CNS
KM12 colon = system: KM12 colon
SK-MEL-28 melanoma = system: SK-MEL-28 melanoma
LOX IMVI melanoma = system: LOX IMVI melanoma
T-47D breast = system: T-47D breast
A498 renal = system: A498 renal
MCF7 breast = system: MCF7 breast
RXF 393 renal = system: RXF 393 renal
BT-549 breast = system: BT-549 breast

Row | Structure (SMILES) | TGI (786-0 renal) [µM] | TGI (HCT-15 colon) [µM] | TGI (M14 melanoma) [µM] | TGI (DU-145 prostate) [µM] | TGI (MDA-MB-231 breast) [µM] | TGI (COLO 205 colon) [µM] | TGI (HL-60(TB) leukemia) [µM] | TGI (SF-295 CNS) [µM] | TGI (KM12 colon) [µM] | TGI (SK-MEL-28 melanoma) [µM] | TGI (LOX IMVI melanoma) [µM] | TGI (T-47D breast) [µM] | TGI (A498 renal) [µM] | TGI (MCF7 breast) [µM] | TGI (RXF 393 renal) [µM] | TGI (BT-549 breast) [µM]
1 | S=c1[nH]n2c(COc3cccc(OCc4nnc5sc(=S)[nH]n45)c3)nnc2s1 | > 100 | > 100 | > 100 | > 100 | > 100 | > 100 | 72.1 | > 100 | > 100 | > 100 | > 100 | > 100 | > 100 | > 100 | > 100 | > 100
2 | CC(C)(C)c1cc(C(CO)OCCOCCO)cc(C(C)(C)C)c1O (stereo not drawn) | > 100 | > 100 | > 100 | > 100 | > 100 | > 100 |  | > 100 | > 100 | > 100 | > 100 | > 100 | > 100 | > 100 | > 100 | > 100
3 | CC(NNC(=O)CC(=O)N(C(=O)c1ccccc1)c1ccc(Cl)cc1)c1cc2ccccc2oc1=O (stereo not drawn) | > 10 | > 10 | > 10 | > 10 | > 10 | > 10 | > 10 | > 10 | > 10 | > 10 | > 10 | > 10 | > 10 | > 10 | > 10 | > 10
4 | O=[N+]([O-])c1ccc(S(=O)(=O)N=Ic2ccccc2)cc1 | > 100 | > 100 | > 100 | > 100 | > 100 | > 100 | > 100 | > 100 | > 100 | > 100 | > 100 | > 100 | > 100 | > 100 | > 100 | > 100
5 | CSc1ncnc2c1cnn2CCCCO | > 100 | > 100 | > 100 | > 100 | > 100 | > 100 | > 100 | > 100 | > 100 | > 100 | > 100 | > 100 | > 100 | > 100 | > 100 | > 100
6 | C[C@@]12CCC3C1C=C1C(=O)c4cc(O)ccc4C(=O)[C@]1(O2)[C@@]3(C)C=O | 14.5 | 11.5 | 19.9 | 11.3 | 19.3 | 19.5 | 3.88 | 22 | 18.1 |  | 11.2 | 14 | 9.59 | 11.6 | 14.1 | 8.69
7 | C[C@@H]1C[C@](O)([C@@H](C)Cl)C(=O)O[C@@H]2CCN3CC=C(COC(=O)[C@]1(C)O)[C@H]23 | > 100 | > 100 | > 100 | > 100 | > 100 | > 100 | > 100 | > 100 | > 100 | > 100 | > 100 | > 100 | > 100 | > 100 |  | > 100
8 | N#C/C(N)=C(\C#N)NC=NCc1ccccc1 | > 100 | > 100 | > 100 | > 100 | > 100 | > 100 | > 100 | > 100 | > 100 | > 100 | > 100 | > 100 | > 100 | > 100 |  | > 100
9 | COc1ccc(-c2nc(SCC(=O)N/N=C/c3ccc(O)c(OC)c3)[nH]c2-c2ccc(OC)cc2)cc1 | 42 | 82.8 | 56.6 | > 100 | 84.5 | 34.4 | 32.4 | 46.5 | > 100 | 74.8 | 46.7 | > 100 | 33.2 | 33.6 | 36.5 | 44.1
10 | O=C(CCc1cc(O)cc(O)c1)NCCc1cc(O)cc(O)c1 | > 100 | > 100 | > 100 | > 100 | > 100 | > 100 |  | > 100 | > 100 | > 100 | > 100 | > 100 | > 100 | > 100 | > 100 | > 100
11 | CC(=O)Nc1ccc(-c2nc3cc(Cl)ccc3o2)cc1 | > 50 | > 50 | > 50 | > 50 | > 50 | > 50 | > 50 | > 50 | > 50 | > 50 | > 50 | > 50 | > 50 | > 50 | > 50 | > 50
12 | O=C(NS(=O)(=O)OCC(Cl)(Cl)Cl)SCCC(F)(F)C(F)(F)C(F)(F)C(F)(F)C(F)(F)C(F)(F)F | > 100 | 47.4 | 48.6 | > 100 | 61.9 | 33.5 | 51.2 | 38.9 | 43.5 | 55.7 | 45.6 | 98.4 | 61.9 | 40.6 | 44.6 | > 100
13 | Cc1ccc(-c2c3c(n(C4OC(CO)C(O)C(O)C4O)c(=S)c2C#N)CC(C)(C)CC3=O)cc1 (stereo not drawn) | > 100 | > 100 | > 100 | > 100 | > 100 |  | > 100 | > 100 | > 100 | > 100 | > 100 | > 100 | > 100 | > 100 | > 100 | > 100
14 | CC12CC(C#N)(C#N)C(C#N)(CO1)C(=N)O2 (stereo not drawn) | > 100 | > 100 | > 100 | > 100 | > 100 | > 100 | > 100 | > 100 | > 100 | > 100 | > 100 | > 100 | > 100 | > 100 | > 100 | > 100
